Assay results taken from article PMC6152329, “Antitumoural Sulphur and Selenium Heteroaryl Compounds: Thermal Characterization and Stability Evaluation” (Molecules : A Journal of Synthetic Chemistry and Natural …, 2017).

How the values were obtained:
[1] = DSC successive melting-recrystallization cycles, polymorphic behaviour; format: physicochemical; parameters: key: I: Compounds that show a polymorphic phase transition into an amorphous or mainly amorphous solid form after a first melting–cooling scan; II: Compounds that change into a new polymorphic form with a different Tonset of fusion than the one observed at the first melting–recrystallization scan after cooling; III: These compounds show a fusion process without modifications in the thermal behaviour after an initial fusion–recrystallization cycle; IV: Compounds that show recrystallization or other types of phase transition of the original form into another crystalline one in the first heat scan; V: Compounds without fusion processes at the range of temperatures studied; *: fusion with decomposition; conditions: 10 °C/min
Method: To establish general polymorphic behaviours, samples of all the compounds synthetized (Figure 1) were exposed to successive cycles of melting–recrystallization using DSC. Calorimetric analyses were performed before the beginning of the degradation process (Table 6). […] This behaviour was shown by several compounds: VA1C, VA2E, VA8E, series H, VA6I, VA8J, VA6M and VA8M. DSC and PXRD results of compound VA7H are shown as supplementary material (Figures S1 and S2 and Table S1). • Behaviour II—Compounds that change into a new polymorphic form with a different Tonset of fusion than the one observed at the first melting–recrystallization scan after cooling. These compounds are VA7E and VA8O. DSC and PXRD results of compound VA7E are shown as supplementary material (Figures S3 and S4, Table S2). • Behaviour III—These compounds show a fusion process without modifications in the thermal behaviour after an initial fusion–recrystallization cycle. Consequently, there is no evidence of polymorphic behaviour. The compounds VA2C, VA2M, VA4J and VA5O belong to this group. DSC and PXRD results of compound VA2M are shown as supplementary material (Figures S5 and S6, Table S3). • Behaviour IV—Compounds that show recrystallization or other types of phase transition of the original form into another crystalline one in the first heat scan. In the successive cycles of melting–recrystallization, the new form may not alter its crystalline form or transit to another polymorphic form. Compounds VA6E, VA7J and VA7M show this behaviour. • Behaviour V—Compounds without fusion processes at the range of temperatures studied.
For calorimetric studies a Perkin–Elmer DSC diamond calibrated with indium and zinc (provided by Perkin–Elmer (Perkin Elmer, Inc. Watham, MA, USA) and fabricated according to guideline ISO35) at 10 °C·min^−1 and nitrogen flow of 20 mL·min^−1 was employed. The gas connected to the equipment was nitrogen with a purity of 99.999%. Calorimetric analyses were carried out in aluminium capsules for volatilities of 10 μL, at a heating rate of 10 °C·min^−1, using a sample of approximately 3 mg, in order to establish the Tonset, Tmax and the enthalpy of fusion ∆Hf.
The calorimetric analyses started with the study of the thermal behaviour of the compounds before the process of degradation in order to evidence the possible existence of polymorphism. For this preliminary study, samples of all the compounds were exposed to successive cycles of heating–cooling. All samples were heated from 50 °C to temperatures 15–20 °C below Tonset of the degradation process, in order to ensure that compounds were not degraded (Table 6). After melting the samples, they were left at room temperature for enough time to allow the compounds to recrystallize before the successive thermal process. Additional cycles of heating–cooling were performed if polymorphism was detected.

[2] = Thermogravimetric (TG) analysis of thermal stability; format: physicochemical; conditions: for TG To (Tonset of thermal degradation): nitrogen, 50 to 350 °C; for TG decomposition or desolvation processes in the temperature range studied: range 100–135 °C for VA4J, 94–108 °C for VA6E
Method: The thermogravimetric (TG) studies were carried out with a Perkin–Elmer TGA-7 (Perkin Elmer, Inc. Watham, MA, USA) which was calibrated with alumel and nickel at 10 °C·min^−1. The calibration of the oven temperatures was carried out automatically and mass calibrated with a certified sample of 10 mg (ASTM E617, provided by Perkin Elmer, Inc. Watham, MA, USA). TG analyses were performed under a nitrogen atmosphere with a gas flow of 40 mL·min^−1, from 50 to 350 °C, at a heating rate of 10 °C·min^−1, using a sample of approximately 3 mg, in order to obtain the values of the Tonset and Tmax of the degradation process as well as any associated mass loss.

[3] = Stability after stress conditions by HPLC/UV-DAD; format: physicochemical; conditions: 0, 4 and 24 h; for Stability to oxidation: H2O2 3%; for Stability to acid hydrolysis: HCl 1 M; for Stability to basic (alkaline) hydrolysis: NaOH 0.1 M
Method: The stability of compounds VA4J (without polymorphic behaviour) and VA6E and VA7J (with polymorphic behaviour) was investigated after the application of diverse stress conditions: acid hydrolysis (HCl 1 M), basic hydrolysis (NaOH 0.1 M) and oxidation (H2O2 3%). Chromatographic studies using HPLC/UV-DAD were performed with this purpose.
Chromatographic studies were performed using an HPLC/UV-DAD (HP 1200, Agilent Technologies. Santa Clara, CA, USA) with a C18 column (Gemini-NX 150 × 4.6 mm, 5 µm) from Phenomenex (Phenomenex. Torrance, CA, USA). The mobile phase was a mixture of acetonitrile/water (80:20; v/v) for compound VA4J, (50:50; v/v) for VA6E and (80:20, 0.1% formic acid; v/v) for compound VA7J. The injection volume was 50 µL and the flow rate was 1 mL/min. Chromatography was performed at 35 °C. UV-DAD detection was established at λ = 254 nm.
For stability evaluation in stress conditions, working solutions of 47.6 µg/mL were prepared by diluting 20 µL of each standard solution in 200 µL of acetonitrile and 200 µL of (a) 1 M HCl, (b) 0.1 M NaOH and (c) 3% H2O2. Data were recorded at zero time and after 4 and 24 h of exposure.

[4] = system: breast adenocarcinoma (MCF-7) cell line; parameters: method as in PMID 27487570; conditions: same methodology; cited from earlier work
[5] = system: non-malignant mammary-gland-derived (184B5) cell line; assay: MTT cell viability assay, 72 h, 184B5; format: cell-based; conditions: 184B5, 72 h; for GI50: Homo sapiens
Method: (§1) The novel synthetic compounds VA2J, VA4J, VA6G, VA6H, VA6I and VA6J were tested in breast adenocarcinoma (MCF-7) and non-malignant mammary-gland-derived (184B5) cell lines to be able to establish their potency and selectivity. The reference drug used was methylseleninic acid (MSA) as a Se-containing structure with promising in vitro and in vivo results against different tumour types. Results are expressed as the concentration that inhibits 50% cell growth (GI50), the concentration that inhibits completely cell growth (TGI) and the concentration that kills 50% of cells (LD50). The selectivity index (SI) is calculated as GI50(184B5)/GI50(MCF-7).
(§2) Cell lines were purchased from the American Type Culture Collection (ATCC, Barcelona, Spain). MCF7 cell lines were grown in Roswell Park Memorial Institute (RPMI) medium (Gibco, Madrid, Spain) supplemented with 10% fetal bovine serum (FBS; Gibco), 100 units/mL penicillin and […] (Gibco, Madrid, Spain). 184B5 cells were grown in DMEM/F12 medium supplemented with 5% FBS, 1x ITS (Lonza, Barcelona, Spain), 100 nM hydrocortisone (Sigma Aldrich, Madrid, Spain), 2 mM sodium pyruvate (Lonza), 20 ng/mL EGF (Sigma Aldrich, Madrid, Spain), 0.3 nM trans-retinoic acid (Sigma-Aldrich) 100 units/mL penicillin and […]. Cells were maintained at 37 °C and 5% CO2.
(§3) Compounds were dissolved in DMSO at a concentration of 0.01 M. Serial dilutions were prepared with non-supplemented medium. The cytotoxic effect of each compound was tested at eight different concentrations ranging between 0.01 and 100 µM.
(§4) A total of 10^4 cells/well in 96 well-plates were treated with either DMSO or increasing concentrations of the corresponding compound for 72 h and cell viability was determined using the MTT (3-(4,5-dimethylthiazol-2-yl)-2,5-diphenyltetrazolium bromide) (Sigma Aldrich, Madrid, Spain) assay. Briefly, cells were incubated with 50 µL of MTT (2 mg/mL stock) for 4 h. The medium was then removed by aspiration and the formazan crystals were dissolved in 150 µL of DMSO. The absorbance was measured at 550 nm in a microplate reader (Sunrise, Tecan, Männedorf, Switzerland). […] Data were obtained from at least three independent experiments performed in quadruplicate.

[6] = system: breast adenocarcinoma (MCF-7) cell line; assay: MTT cell viability assay, 72 h, MCF-7; format: cell-based, human; conditions: for SI (selectivity index): GI50(184B5)/GI50(MCF-7); for TGI: concentration that completely inhibits cell growth; for LD50: concentration that kills 50% of cells
Method: as §1, §2, §3, §4

[7] = system: 1205Lu (melanoma), A549 (lung), DU145 (prostate), HCT116 (colon), PANC-1 (pancreas) and BxPC3 (pancreas); parameters: method as in PMID 26922233; conditions: all six cell lines, even at short time points; MTT conditions slightly different; cited from earlier work

N#CSCc1cc2c(cc1Br)OCO2 [VA6E]
DSC Behaviour (polymorphic/calorimetric behaviour) [1]: IV
TG To (Tonset of thermal degradation) ([2]; 10 °C/min): 184.1 °C
TG decomposition or desolvation processes in the temperature range studied [2]: can be excluded
Stability to oxidation [3]: degradation product peaks were also detected
Stability to acid hydrolysis [3]: degradation product peaks were also detected
Stability to basic (alkaline) hydrolysis [3]: degraded almost completely
Selectivity relative to MSA [4]: fourteen times more selective than MSA

COc1cc2oc(=O)cc(CSC#N)c2cc1OC [VA6I, (6,7-Dimethoxy-2-oxo-2H-chromen-4-yl)methyl Thiocyanate]
DSC Behaviour (polymorphic/calorimetric behaviour) [1]: I
TG To (Tonset of thermal degradation) ([2]; 10 °C/min): 246.9 °C
LD50 [5]: >100 µM
TGI [5]: >100 µM
GI50 [5]: 2.26 µM
SI (selectivity index) [6]: 0.50
TGI ([6]; MCF-7, 72 h, MTT): >100 µM
LD50 ([6]; MCF-7, 72 h, MTT): >100 µM

N=C(N)[Se]Cc1nc2ccccc2nc1C[Se]C(=N)N [VA7J]
DSC Behaviour (polymorphic/calorimetric behaviour) [1]: IV
TG debromhidration process temperature ([2]; 10 °C/min): 173 °C
Stability to oxidation [3]: totally degraded
Stability to acid hydrolysis [3]: stable
Stability to basic (alkaline) hydrolysis [3]: only a minor degradation
IC50 [7]: < 10 µM

CSc1nc2ccccc2nc1SC [VA4J, 2,3-Bis(methylsulfanyl)quinoxaline]
DSC Behaviour (polymorphic/calorimetric behaviour) [1]: III
TG To (Tonset of thermal degradation) ([2]; 10 °C/min): 197.42 °C
TG decomposition or desolvation processes in the temperature range studied [2]: can be excluded
LD50 [5]: >100 µM
TGI [5]: >100 µM
GI50 [5]: 52.5 µM
Stability to oxidation [3]: stable
Stability to acid hydrolysis [3]: stable
Stability to basic (alkaline) hydrolysis [3]: stable
SI (selectivity index) [6]: 51.25
TGI ([6]; MCF-7, 72 h, MTT): >100 µM
LD50 ([6]; MCF-7, 72 h, MTT): >100 µM
SI relative to MSA ([6]; SI of compound compared with SI of MSA): over 50 times

N#CSCc1nc2ccccc2nc1CSC#N [VA6J, Quinoxalin-2,3-diyldimethanediyl Bisthiocyanate]
DSC Behaviour (polymorphic/calorimetric behaviour) [1]: *
TG To (Tonset of thermal degradation) ([2]; 10 °C/min): 165.0 °C
LD50 [5]: 94.62 µM
TGI [5]: 69.80 µM
GI50 [5]: 39.8 µM
SI (selectivity index) [6]: 2.15
GI50 ([6]; Homo sapiens, MCF7, 72 h, MCF-7, 72 h, MTT, concentration that inhibits 50% cell growth): 18.5 µM
TGI ([6]; MCF-7, 72 h, MTT): 50.55 µM
LD50 ([6]; MCF-7, 72 h, MTT): 83.93 µM

Cl.N=C(N)Sc1nc2ccccc2nc1S [VA2J, 3-Mercaptoquinoxalin-2-yl Carbamimidothioate Hydrochloride]
DSC Behaviour (polymorphic/calorimetric behaviour) [1]: *
TG To (Tonset of thermal degradation) ([2]; 10 °C/min): 199.2 °C
LD50 [5]: 20.48 µM
TGI [5]: 15.97 µM
GI50 [5]: 12.5 µM
SI (selectivity index) [6]: 5.66
TGI ([6]; MCF-7, 72 h, MTT): 13.90 µM
LD50 ([6]; MCF-7, 72 h, MTT): 44.02 µM
